Assay: Inhibition of CSF1R in mouse MNFS-60 cells assessed as reduction in CSF-induced cell viability after 48 hrs by Ez-cytox reagent based assay

Structure (SMILES) | IC50 [µM]
CCN1CCN(Cc2ccc(C(=O)Nc3ccc(C)c(NC(=O)c4n[nH]c5ncccc45)c3)cc2C(F)(F)F)CC1 | 0.254
Cc1ccc(NC(=O)c2ccc(C(F)(F)F)nc2)cc1NC(=O)c1cnc2ccccn12 | 0.025
CCN1CCN(Cc2ccc(C(=O)Nc3ccc(C)c(NCc4cnc5ccc(OC)nn45)c3)cc2C(F)(F)F)CC1 | 0.406
CCN1CCN(Cc2ccc(C(=O)Nc3ccc(C)c(NC(=O)c4c[nH]cn4)c3)cc2C(F)(F)F)CC1 | 5.43
CCN1CCN(Cc2ccc(C(=O)Nc3ccc(C)c(NC(=O)c4n[nH]c5ccccc45)c3)cc2C(F)(F)F)CC1 | 1.58
Cc1ccc(NCc2ccc(C(F)(F)F)nc2)cc1NC(=O)c1cnn2ccccc12 | 5.77
CCN1CCN(Cc2ccc(C(=O)Nc3ccc(C)c(NC(=O)c4cnn5ccccc45)c3)cc2C(F)(F)F)CC1 | 0.091
Cc1ccc(NCc2ccc(C(F)(F)F)nc2)cc1NC(=O)c1cnc2cccnn12 | > 10
Cc1cn(-c2cc(NC(=O)c3ccc(C)c(NC(=O)c4cnc5cccnn45)c3)cc(C(F)(F)F)c2)cn1 | 1.81
CCN1CCN(Cc2ccc(C(=O)Nc3ccc(C)c(NC(=O)c4cc[nH]n4)c3)cc2C(F)(F)F)CC1 | 4.73
Cc1ccc(NCc2ccc(C(F)(F)F)nc2)cc1NC(=O)c1cnc2ccccn12 | 3.15
Cc1ccc(NC(=O)c2ccc(C(F)(F)F)nc2)cc1NC(=O)c1cnc2cccnn12 | > 10
Cc1cn(-c2cc(NC(=O)c3ccc(C)c(Nc4nccc(-c5cccnc5)n4)c3)cc(C(F)(F)F)c2)cn1 [AMN 107] | 0.534
CCN1CCN(Cc2ccc(C(=O)Nc3ccc(C)c(NCc4cnc5cccnn45)c3)cc2C(F)(F)F)CC1 | 0.66
CNC(=O)c1cc(Oc2ccc3nc(N[C@H]4CCCC[C@H]4O)sc3c2)ccn1 | 0.245
CCN1CCN(Cc2ccc(C(=O)Nc3ccc(C)c(NC(=O)c4cnc5ccccn45)c3)cc2C(F)(F)F)CC1 | 0.149
Cc1ccc(NC(=O)c2ccc(C(F)(F)F)nc2)cc1NC(=O)c1cnn2ccccc12 | 0.027
Cc1cn(-c2cc(NC(=O)c3ccc(C)c(NC(=O)c4cnc5ccccn45)c3)cc(C(F)(F)F)c2)cn1 | 0.486
CCN1CCN(Cc2ccc(C(=O)Nc3ccc(C)c(NC(=O)c4cnc5cccnn45)c3)cc2C(F)(F)F)CC1 | 0.178
FC(F)(F)c1ccc(CNc2ccc(Cc3c[nH]c4ncc(Cl)cc34)cn2)cn1 | 0.014
CCN1CCN(Cc2ccc(C(=O)Nc3ccc(C)c(NC(=O)c4ncc[nH]4)c3)cc2C(F)(F)F)CC1 | 5.78
CCN1CCN(Cc2ccc(C(=O)Nc3ccc(C)c(NC(=O)c4cnc5ncccn45)c3)cc2C(F)(F)F)CC1 | 4.17
CCN1CCN(Cc2ccc(C(=O)Nc3ccc(C)c(NC(=O)c4ccn(C)n4)c3)cc2C(F)(F)F)CC1 | 5.15
CCN1CCN(Cc2ccc(NC(=O)c3ccc(C)c(NC(=O)c4cnc5cccnn45)c3)cc2C(F)(F)F)CC1 | 0.122
CCN1CCN(Cc2ccc(C(=O)Nc3ccc(C)c(NC(=O)c4cnnc5ccccc45)c3)cc2C(F)(F)F)CC1 | 1.6
